Assays:
[1] = target: RBD of SARS-CoV-2 spike protein / hACE2 receptor (Severe acute respiratory syndrome coronavirus 2, UniProt P0DTC2); type: binding; conditions: 100 μg/ml
[2] = tested on: SARS-CoV-2 spike protein pseudo-typed virions; type: cell-based
hACE2 [3] = target: T1, hACE2 (Homo sapiens, UniProt Q9BYF1); assay: ACE2 binding assay (ACE2 Inhibitor Screening Assay Kit); design: purchased BPS Bioscience
cathepsin L = assay: Cathepsin L expression in A549 cells (Western blot); type: cell-based, human; conditions: 24 h
Description: Western blot analysis: A549 cells were treated with indicated concentrations of selected polyphenols and lysed using RIPA lysis buffer (Sigma, St. Louis, MO) supplemented with 1× Complete protease inhibitors (Roche Applied Science, Indianapolis, IN). The protein concentration was measured by the Dc protein assay (Bio-Rad, Hercules, CA). Proteins (50 μg/well) were separated on 8-16% gradient SDS-PAGE gels and transferred to a PVDF membrane. Specific proteins were detected with commercially available human anti-cathepsin L, anti-TMPRSS2, and anti-ACE2 monoclonal antibodies, all at 1:200 dilution, and anti-β-actin antibody as a loading control at 1:1000 dilution. Images were captured with Azure™ cSeries digital imaging system (Azure Biosystems, Dublin, CA) with auto-exposure settings. Densitometry was performed with NIH ImageJ software.
Cathepsin L expression: Expression of cathepsin L in cells was performed using Western blot. […] Next, cells were washed with 1×PBS, lysed, and processed according to procedure described below.
Western blot: A495 cells were lysed with lysis buffer [R IPA buffer plus 1× Protease Inhibitor (ThermoFisher Scientific, Waltham, MA)]. The protein estimation was performed with Dc Protein Assay (Bio-Rad, Hercules, CA). A 45 μg/well of protein was separated on 8-16% gradient SDS-PAGE gels and transferred to a PVDF membrane. […]

[4] = tested on: A549 cells expressing SARS-CoV-2 spike protein / hACE2/A549 cells; type: cell-based, human; conditions: 25 μg/ml, 4 h
[5] = tested on: lysosomal/endosomal pH of A549 cells; assay: Endosomal/lysosomal pH assay in A549 cells; type: cell-based, human; conditions: 5.0-25 μg/ml; control approximately pH=5.0
Description: Acridine orange (Thermo Fisher Scientific, Waltham, MA) was added directly to each dish to reach a final concentration of 6.6 μg/ml. The cells were additionally incubated at 37° C. with 5% CO2 for 20 min. and washed three times with 1×PBS. Live Cell Imaging Solution (LCIS) (Thermo Fisher Scientific, Waltham, MA) was added to the wells, and images were taken using a Zeiss Axio Observer A1 fluorescence microscope with a 40× magnification. […] Results are expressed as a percentage of polyphenol-free control (mean+/−SD, n=3).
A concurrent experiment was performed using pHrodo™ Green AM Intracellular pH Indicator (Thermo Fisher Scientific, Waltham, MA) according to the manufacturer's protocol. […] Next, 10 μl of the pHrodo™ Green AM dye was added to 100 μl of PowerLoad™ to facilitates uniform cellular loading of AM esters, and the whole dye solution was transferred into 10 ml of LCIS. […] The plate was incubated for 30 min. at 37° C., washed again with LCIS, and fluorescence was measured at Ex/Em=509/533 nm wavelength using a spectrofluorometer (Tecan Group Ltd, Switzerland). pH identification was performed based on standard curve, using an Intracellular pH Calibration Buffer Kit according to the manufacturer's protocol (Thermo Fisher Scientific, Waltham, MA). […] Next, the fluorescence was measured Ex/Em=509/533 nm wavelength. […]

hACE2 [6] = target: T1, hACE2; conditions: Jena et al.; cited from earlier work
[7] = target: RBD of SARS-CoV-2 spike protein (Severe acute respiratory syndrome coronavirus 2, UniProt P0DTC2); conditions: Jena et al.; cited from earlier work
[8] = tested on: SARS-CoV-2 spike protein pseudo-typed virions; type: cell-based; remark: listed apart in the source

T1 sequence (Q9BYF1 18-805): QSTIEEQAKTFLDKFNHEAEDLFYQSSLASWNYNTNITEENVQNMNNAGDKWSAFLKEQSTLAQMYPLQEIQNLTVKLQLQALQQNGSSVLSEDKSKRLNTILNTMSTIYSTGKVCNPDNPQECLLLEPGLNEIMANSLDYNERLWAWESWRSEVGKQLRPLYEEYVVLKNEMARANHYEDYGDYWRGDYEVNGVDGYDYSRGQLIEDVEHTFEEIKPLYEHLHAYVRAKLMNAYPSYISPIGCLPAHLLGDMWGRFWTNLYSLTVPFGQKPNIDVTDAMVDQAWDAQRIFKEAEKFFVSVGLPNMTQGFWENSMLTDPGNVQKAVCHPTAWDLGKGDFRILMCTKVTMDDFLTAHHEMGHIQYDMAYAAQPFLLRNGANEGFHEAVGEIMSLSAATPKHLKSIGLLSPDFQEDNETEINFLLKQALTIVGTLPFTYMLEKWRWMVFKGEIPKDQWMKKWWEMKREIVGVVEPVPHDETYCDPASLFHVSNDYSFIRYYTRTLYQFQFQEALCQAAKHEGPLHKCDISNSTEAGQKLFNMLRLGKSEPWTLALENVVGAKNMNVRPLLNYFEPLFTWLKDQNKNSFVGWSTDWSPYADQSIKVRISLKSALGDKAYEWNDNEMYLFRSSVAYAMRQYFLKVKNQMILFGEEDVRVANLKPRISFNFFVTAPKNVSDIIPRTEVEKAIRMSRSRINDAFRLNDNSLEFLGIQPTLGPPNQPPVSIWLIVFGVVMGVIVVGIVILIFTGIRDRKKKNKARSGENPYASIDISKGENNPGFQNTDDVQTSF

Compound | rank of inhibitory effect among 56 polyphenols and plant extracts [1] | binding of pseudo-typed virions to hACE2/A549 [2] | direct binding to ACE2 (hACE2 [3]) | cathepsin L expression at protein level (cathepsin L) | decrease of fusion [4] [%] | lysosomal/endosomal pH [5] | binding affinity to hACE2 (hACE2 [6]) [kcal/mol] | binding affinity to viral spike protein [7] [kcal/mol] | concentration showing binding efficacy to ACE2 (hACE2 [3]) [µg/mL] | concentration from which significant inhibition was seen [8] [µg/mL]
Oc1ccc2c(c1)OC[C@]1(O)Cc3cc(O)c(O)cc3[C@H]21 [Brazilin] | highest inhibitory effect | inhibit, in dose-dependent fashion | does not bind to ACE2 directly | neither brazilin nor curcumin downregulated cathepsin L expression | 40 |  |  |  |  | 
theaflavin-3,3′-digallate [TF-3] |  | inhibit, in dose-dependent fashion |  |  |  | 5.5-6.0 pH |  |  |  | 
catechin |  |  |  |  |  |  | -7.8 | -7.9 |  | 
COc1cc(/C=C/C(=O)CC(=O)/C=C/c2ccc(O)c(OC)c2)ccc1O [Curcumin] | highest inhibitory effect | inhibit, in dose-dependent fashion |  | neither brazilin nor curcumin downregulated cathepsin L expression |  |  | -8.9 | -10.5 | 10 to 25 | ≥ 5.0
